Key:
Format in all cases: ADME
[1] = (§1) The drug is tested on Coprococcus comes strain: ATCC27758 for biotransformation under anaerobic condition. The drug concentrations were measured over 6 timepoints collected between 0 and 12 hours of incubation by liquid-chromatography-coupled mass spectrometry (LC–MS); parameters: dose 5 uM, timepoint 0, 1.5, 3, 6, 9, 12 hours; details: 5 µM
[2] = (§2) The drug is tested on Actinomyces graevenitzii strain: DSM15540 for biotransformation under microaerobic condition. The drug concentrations were measured over 6 timepoints collected between 0 and 12 hours of incubation by liquid-chromatography-coupled mass spectrometry (LC–MS); parameters: dose 5 uM, timepoint 0, 1.5, 3, 6, 9, 12 hours; details: 5 µM
[3] = The drug is tested on Actinomyces naeslundi strain: DSM43013 for biotransformation under anaerobic condition. The drug concentrations were measured over 6 timepoints collected between 0 and 12 hours of incubation by liquid-chromatography-coupled mass spectrometry (LC–MS); parameters: dose 5 uM, timepoint 0, 1.5, 3, 6, 9, 12 hours; details: actinomyces naeslundii, 5 µM
[4] = The drug is tested on Lactobacillus gasseri strain: DSM20243 for biotransformation under microaerobic condition. The drug concentrations were measured over 6 timepoints collected between 0 and 12 hours of incubation by liquid-chromatography-coupled mass spectrometry (LC–MS); parameters: dose 5 uM, timepoint 0, 1.5, 3, 6, 9, 12 hours; details: 5 µM
[5] = The drug is tested on Streptococcus mitis strain: DSM12643 for biotransformation under microaerobic condition. The drug concentrations were measured over 6 timepoints collected between 0 and 12 hours of incubation by liquid-chromatography-coupled mass spectrometry (LC–MS); parameters: dose 5 uM, timepoint 0, 1.5, 3, 6, 9, 12 hours; details: 5 µM
[6] = as §1, with “the gut metagenome community of T-03 with ENA study accession number: PRJEB31790” for “Coprococcus comes strain: ATCC27758”, “7” for “6”; parameters: dose 5 uM, timepoint 0, 0.75, 1.5, 3, 6, 9, 12 hours; details: 5 µM
[7] = as §2, with “the gut metagenome community of A-10 with ENA study accession number: PRJEB31790” for “Actinomyces graevenitzii strain: DSM15540”, “7” for “6”; parameters: dose 5 uM, timepoint 0, 0.75, 1.5, 3, 6, 9, 12 hours; details: 5 µM
[8] = as §1, with “the gut metagenome community of A-03 with ENA study accession number: PRJEB31790” for “Coprococcus comes strain: ATCC27758”, “7” for “6”; parameters: dose 5 uM, timepoint 0, 0.75, 1.5, 3, 6, 9, 12 hours; details: 5 µM
[9] = The drug is tested on Streptococcus mitis strain: DSM12643 for biotransformation under anaerobic condition. The drug concentrations were measured over 6 timepoints collected between 0 and 12 hours of incubation by liquid-chromatography-coupled mass spectrometry (LC–MS); parameters: dose 5 uM, timepoint 0, 1.5, 3, 6, 9, 12 hours; details: 5 µM
[10] = The drug is tested on Eubacterium hallii strain: DSM3353 for biotransformation under anaerobic condition. The drug concentrations were measured over 6 timepoints collected between 0 and 12 hours of incubation by liquid-chromatography-coupled mass spectrometry (LC–MS); parameters: dose 5 uM, timepoint 0, 1.5, 3, 6, 9, 12 hours; details: anaerobutyricum hallii, 5 µM
[11] = The drug is tested on Streptococcus anginosus strain: DSM20563 for biotransformation under anaerobic condition. The drug concentrations were measured over 6 timepoints collected between 0 and 12 hours of incubation by liquid-chromatography-coupled mass spectrometry (LC–MS); parameters: dose 5 uM, timepoint 0, 1.5, 3, 6, 9, 12 hours; details: 5 µM
[12] = The drug is tested on Streptococcus sanguinis strain: DSM20567 for biotransformation under anaerobic condition. The drug concentrations were measured over 6 timepoints collected between 0 and 12 hours of incubation by liquid-chromatography-coupled mass spectrometry (LC–MS); parameters: dose 5 uM, timepoint 0, 1.5, 3, 6, 9, 12 hours; details: 5 µM
[13] = The drug is tested on Enterococcus faecalis strain: ATCC29212 for biotransformation under microaerobic condition. The drug concentrations were measured over 6 timepoints collected between 0 and 12 hours of incubation by liquid-chromatography-coupled mass spectrometry (LC–MS); parameters: dose 5 uM, timepoint 0, 1.5, 3, 6, 9, 12 hours; details: 5 µM
[14] = The drug is tested on Roseburia intestinalis strain: DSM14610 for biotransformation under anaerobic condition. The drug concentrations were measured over 6 timepoints collected between 0 and 12 hours of incubation by liquid-chromatography-coupled mass spectrometry (LC–MS); parameters: dose 5 uM, timepoint 0, 1.5, 3, 6, 9, 12 hours; details: 5 µM
[15] = The drug is tested on Bacteroides uniformis strain: DSM6597 for biotransformation under anaerobic condition. The drug concentrations were measured over 6 timepoints collected between 0 and 12 hours of incubation by liquid-chromatography-coupled mass spectrometry (LC–MS); parameters: dose 5 uM, timepoint 0, 1.5, 3, 6, 9, 12 hours; details: 5 µM
[16] = The drug is tested on Bacteroides caccae strain: DSM19024 for biotransformation under anaerobic condition. The drug concentrations were measured over 6 timepoints collected between 0 and 12 hours of incubation by liquid-chromatography-coupled mass spectrometry (LC–MS); parameters: dose 5 uM, timepoint 0, 1.5, 3, 6, 9, 12 hours; details: 5 µM
[17] = The drug is tested on Faecalibacterium prausnitzii strain: DSM17677 for biotransformation under anaerobic condition. The drug concentrations were measured over 6 timepoints collected between 0 and 12 hours of incubation by liquid-chromatography-coupled mass spectrometry (LC–MS); parameters: dose 5 uM, timepoint 0, 1.5, 3, 6, 9, 12 hours; details: faecalibacterium duncaniae, 5 µM
[18] = The drug is tested on Escherichia coli strain: DSM27469 for biotransformation under microaerobic condition. The drug concentrations were measured over 6 timepoints collected between 0 and 12 hours of incubation by liquid-chromatography-coupled mass spectrometry (LC–MS); parameters: dose 5 uM, timepoint 0, 1.5, 3, 6, 9, 12 hours; details: 5 µM
[19] = The drug is tested on Blautia hansenii strain: DSM20583 for biotransformation under anaerobic condition. The drug concentrations were measured over 6 timepoints collected between 0 and 12 hours of incubation by liquid-chromatography-coupled mass spectrometry (LC–MS); parameters: dose 5 uM, timepoint 0, 1.5, 3, 6, 9, 12 hours; details: 5 µM
[20] = The drug is tested on Parabacteroides distasonis strain: DSM20701 for biotransformation under anaerobic condition. The drug concentrations were measured over 6 timepoints collected between 0 and 12 hours of incubation by liquid-chromatography-coupled mass spectrometry (LC–MS); parameters: dose 5 uM, timepoint 0, 1.5, 3, 6, 9, 12 hours; details: 5 µM
[21] = The drug is tested on Clostridium bolteae strain: DSM15670 for biotransformation under anaerobic condition. The drug concentrations were measured over 6 timepoints collected between 0 and 12 hours of incubation by liquid-chromatography-coupled mass spectrometry (LC–MS); parameters: dose 5 uM, timepoint 0, 1.5, 3, 6, 9, 12 hours; details: enterocloster bolteae, 5 µM
[22] = The drug is tested on Dorea formicigenerans strain: DSM3992 for biotransformation under anaerobic condition. The drug concentrations were measured over 6 timepoints collected between 0 and 12 hours of incubation by liquid-chromatography-coupled mass spectrometry (LC–MS); parameters: dose 5 uM, timepoint 0, 1.5, 3, 6, 9, 12 hours; details: 5 µM
[23] = The drug is tested on Lactobacillus fermentum strain: DSM20052 for biotransformation under microaerobic condition. The drug concentrations were measured over 6 timepoints collected between 0 and 12 hours of incubation by liquid-chromatography-coupled mass spectrometry (LC–MS); parameters: dose 5 uM, timepoint 0, 1.5, 3, 6, 9, 12 hours; details: limosilactobacillus fermentum, 5 µM
[24] = The drug is tested on Odoribacter splanchnicus strain: DSM20712 for biotransformation under anaerobic condition. The drug concentrations were measured over 6 timepoints collected between 0 and 12 hours of incubation by liquid-chromatography-coupled mass spectrometry (LC–MS); parameters: dose 5 uM, timepoint 0, 1.5, 3, 6, 9, 12 hours; details: 5 µM
[25] = The drug is tested on Bifidobacterium longum strain: DSM20088 for biotransformation under microaerobic condition. The drug concentrations were measured over 6 timepoints collected between 0 and 12 hours of incubation by liquid-chromatography-coupled mass spectrometry (LC–MS); parameters: dose 5 uM, timepoint 0, 1.5, 3, 6, 9, 12 hours; details: 5 µM
[26] = as §1, with “the gut metagenome community of A-09 with ENA study accession number: PRJEB31790” for “Coprococcus comes strain: ATCC27758”, “7” for “6”; parameters: dose 5 uM, timepoint 0, 0.75, 1.5, 3, 6, 9, 12 hours; details: 5 µM
[27] = as §2, with “the gut metagenome community of A-06 with ENA study accession number: PRJEB31790” for “Actinomyces graevenitzii strain: DSM15540”, “7” for “6”; parameters: dose 5 uM, timepoint 0, 0.75, 1.5, 3, 6, 9, 12 hours; details: 5 µM
[28] = The drug is tested on Parabacteroides merdae strain: DSM19495 for biotransformation under anaerobic condition. The drug concentrations were measured over 6 timepoints collected between 0 and 12 hours of incubation by liquid-chromatography-coupled mass spectrometry (LC–MS); parameters: dose 5 uM, timepoint 0, 1.5, 3, 6, 9, 12 hours; details: 5 µM

Bacterial Biotransformation [1]	Bacterial Biotransformation [2]	Bacterial Biotransformation [3]	Bacterial Biotransformation [4]	Bacterial Biotransformation [5]	Bacterial Biotransformation [6]	Bacterial Biotransformation [7]	Bacterial Biotransformation [8]	Bacterial Biotransformation [9]	Bacterial Biotransformation [10]	Bacterial Biotransformation [11]	Bacterial Biotransformation [12]	Bacterial Biotransformation [13]	Bacterial Biotransformation [14]	Bacterial Biotransformation [15]	Bacterial Biotransformation [16]	Bacterial Biotransformation [17]	Bacterial Biotransformation [18]	Bacterial Biotransformation [19]	Bacterial Biotransformation [20]	SMILES	other results
Compound NOT metabolized	Compound NOT metabolized	Compound NOT metabolized	Compound NOT metabolized	Compound NOT metabolized	Compound NOT metabolized	Compound NOT metabolized	Compound NOT metabolized	Compound NOT metabolized	Compound NOT metabolized	Compound NOT metabolized	Compound NOT metabolized	Compound NOT metabolized	Compound NOT metabolized	Compound NOT metabolized	Compound NOT metabolized	Compound NOT metabolized	Compound NOT metabolized	Compound NOT metabolized	Compound NOT metabolized	NS(=O)(=O)c1cc(C(=O)O)c(NCc2ccco2)cc1Cl [FUROSEMIDE]	Bacterial Biotransformation [21]: Compound NOT metabolized; Bacterial Biotransformation [22]: Compound NOT metabolized; Bacterial Biotransformation [23]: Compound NOT metabolized; Bacterial Biotransformation [24]: Compound NOT metabolized; Bacterial Biotransformation [25]: Compound NOT metabolized; Bacterial Biotransformation [26]: Compound NOT metabolized; Bacterial Biotransformation [27]: Compound NOT metabolized; Bacterial Biotransformation [28]: Compound NOT metabolized
Compound NOT metabolized	Compound NOT metabolized	Compound NOT metabolized	Compound NOT metabolized	Compound NOT metabolized	Compound NOT metabolized	Compound metabolized	Compound metabolized	Compound NOT metabolized	Compound NOT metabolized	Compound NOT metabolized	Compound NOT metabolized	Compound NOT metabolized	Compound NOT metabolized	Compound NOT metabolized	Compound NOT metabolized	Compound NOT metabolized	Compound NOT metabolized	Compound NOT metabolized	Compound NOT metabolized	C[C@]12CCC(=O)C=C1CC[C@@H]1[C@@H]2[C@@H](O)C[C@@]2(C)[C@H]1CC[C@]2(O)C(=O)CO [HYDROCORTISONE]	Bacterial Biotransformation [21]: Compound metabolized; Bacterial Biotransformation [22]: Compound NOT metabolized; Bacterial Biotransformation [23]: Compound NOT metabolized; Bacterial Biotransformation [24]: Compound NOT metabolized; Bacterial Biotransformation [25]: Compound NOT metabolized; Bacterial Biotransformation [26]: Compound metabolized; Bacterial Biotransformation [27]: Compound metabolized; Bacterial Biotransformation [28]: Compound NOT metabolized
Compound metabolized	Compound NOT metabolized	Compound NOT metabolized	Compound NOT metabolized	Compound NOT metabolized	Compound NOT metabolized	Compound metabolized	Compound metabolized	Compound NOT metabolized	Compound metabolized	Compound NOT metabolized	Compound NOT metabolized	Compound NOT metabolized	Compound metabolized	Compound NOT metabolized	Compound NOT metabolized	Compound NOT metabolized	Compound NOT metabolized	Compound NOT metabolized	Compound NOT metabolized	CN(Cc1cnc2nc(N)nc(N)c2n1)c1ccc(C(=O)N[C@@H](CCC(=O)O)C(=O)O)cc1 [METHOTREXATE]	Bacterial Biotransformation [21]: Compound NOT metabolized; Bacterial Biotransformation [22]: Compound NOT metabolized; Bacterial Biotransformation [23]: Compound NOT metabolized; Bacterial Biotransformation [24]: Compound NOT metabolized; Bacterial Biotransformation [25]: Compound NOT metabolized; Bacterial Biotransformation [26]: Compound metabolized; Bacterial Biotransformation [27]: Compound metabolized; Bacterial Biotransformation [28]: Compound NOT metabolized
